Patent US9283222B2 (priority 2006, dated 2016)

target: Recombinant Human Poly(ADP-Ribose) Polymerase (PARP), PARP-1 (Homo sapiens (Human), UniProt P09874); details: read-out: PARP-1 (Ki); Table 1; text calls the values EC50s
Sequence (P09874 whole entry): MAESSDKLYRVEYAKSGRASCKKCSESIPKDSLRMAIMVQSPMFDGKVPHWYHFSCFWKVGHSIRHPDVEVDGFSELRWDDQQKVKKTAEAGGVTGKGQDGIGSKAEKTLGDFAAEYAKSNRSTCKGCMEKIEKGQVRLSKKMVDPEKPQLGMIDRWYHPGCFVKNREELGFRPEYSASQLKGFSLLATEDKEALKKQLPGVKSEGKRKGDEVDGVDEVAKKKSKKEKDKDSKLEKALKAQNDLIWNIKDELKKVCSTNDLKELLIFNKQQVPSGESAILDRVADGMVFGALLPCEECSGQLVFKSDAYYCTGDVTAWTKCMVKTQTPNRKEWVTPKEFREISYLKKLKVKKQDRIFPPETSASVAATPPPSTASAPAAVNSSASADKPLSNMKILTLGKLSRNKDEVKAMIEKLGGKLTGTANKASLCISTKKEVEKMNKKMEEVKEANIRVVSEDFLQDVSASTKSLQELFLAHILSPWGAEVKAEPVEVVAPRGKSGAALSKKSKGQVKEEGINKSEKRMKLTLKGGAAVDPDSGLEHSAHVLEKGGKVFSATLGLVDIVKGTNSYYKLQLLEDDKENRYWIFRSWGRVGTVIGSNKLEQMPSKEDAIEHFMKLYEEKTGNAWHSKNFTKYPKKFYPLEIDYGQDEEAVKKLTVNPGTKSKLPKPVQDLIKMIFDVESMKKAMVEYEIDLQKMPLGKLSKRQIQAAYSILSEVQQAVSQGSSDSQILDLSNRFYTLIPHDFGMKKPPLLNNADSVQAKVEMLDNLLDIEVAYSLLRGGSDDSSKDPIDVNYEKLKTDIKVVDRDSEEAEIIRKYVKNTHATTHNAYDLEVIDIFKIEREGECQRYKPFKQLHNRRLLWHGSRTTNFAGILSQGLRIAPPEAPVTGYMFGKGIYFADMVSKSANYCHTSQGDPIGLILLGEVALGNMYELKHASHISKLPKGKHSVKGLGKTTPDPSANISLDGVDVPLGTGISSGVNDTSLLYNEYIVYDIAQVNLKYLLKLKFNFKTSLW
Experimental: Nicotinamide[2,5′,8-3H]adenine dinucleotide and strepavidin SPA beads were purchased from Amersham Biosiences. […] NAD^+, histone, aminobenzamide, 3-amino benzamide and Calf Thymus DNA (dcDNA) were purchased from Sigma. Stem loop oligonucleotide containing MCAT sequence was obtained from Qiagen. The oligos were dissolved to 1 mM in annealing buffer containing 10 mM Tris HCl pH 7.5, 1 mM EDTA, and 50 mM NaCl, incubated for 5 minutes at 95° C., and annealed at 45° C. for 45 minutes. […] Biotinylated histone H1 was prepared by treating the protein with Sulfo-NHS-LC-Biotin from Pierce. The biotinylation reaction was conducted by slowly and intermittently adding 3 equivalents of 10 mM Sulfo-NHS-LC-Biotin to 100 μM Histone H1 in phosphate-buffered saline, pH 7.5, at 4° C. with gentle vortexing over 1 minute followed by subsequent 4° C. incubation for 1 hour. Streptavidin coated (FlashPlate Plus) microplates were purchased from Perkin Elmer.
PARP1 assay was conducted in PARP assay buffer containing 50 mM Tris pH 8.0, 1 mM DTT, 4 mM MgCl2. […] Auto reactions utilizing SPA bead-based detection were carried out in 100 μL volumes in white 96 well plates.

Question: How did the Ki turn out when `O=C(c1ccc2nc[nH]c2c1)N1CCCN(C(=O)c2cc(Cc3n[nH]c(=O)c4c3NCCC4)ccc2F)CC1` [Example 686, 8-(3-{[4-(1H-benzimidazol-6-ylcarbonyl)-1,4-diazepan-1-yl]carbonyl}-4-fluorobenzyl)-2,3,4,6-tetrahydropyrido[2,3-d]pyridazin-5(1H)-one] was run?
Answer: 1.9 nM

Question: Which Ki does the source give for `O=C(c1ccc2ccccc2n1)N1CCCN(C(=O)c2cc(Cc3n[nH]c(=O)c4c3NCCC4)ccc2F)CC1` [Example 687, 8-(4-fluoro-3-{[4-(quinolin-2-ylcarbonyl)-1,4-diazepan-1-yl]carbonyl}benzyl)-2,3,4,6-tetrahydropyrido[2,3-d]pyridazin-5(1H)-one] here?
Answer: 4.2 nM

Question: For `O=C(c1cnc2ccccc2c1)N1CCCN(C(=O)c2cc(Cc3n[nH]c(=O)c4c3NCCC4)ccc2F)CC1` [Example 688, 8-(4-fluoro-3-{[4-(quinolin-3-ylcarbonyl)-1,4-diazepan-1-yl]carbonyl}benzyl)-2,3,4,6-tetrahydropyrido[2,3-d]pyridazin-5(1H)-one], which Ki is on record?
Answer: 2.4 nM

Question: `Cc1nc2cc(C(=O)N3CCCN(C(=O)c4cc(Cc5n[nH]c(=O)c6c5NCCC6)ccc4F)CC3)ccc2[nH]1` [Example 689, 8-[4-fluoro-3-({4-[(2-methyl-1H-benzimidazol-5-yl)carbonyl]-1,4-diazepan-1-yl}carbonyl)benzyl]-2,3,4,6-tetrahydropyrido[2,3-d]pyridazin-5(1H)-one] was tested. Which Ki did it give?
Answer: 2.7 nM

Question: Which Ki does the source give for `CC(C)n1nnc2cc(C(=O)N3CCCN(C(=O)c4cc(Cc5n[nH]c(=O)c6c5NCCC6)ccc4F)CC3)ccc21` [Example 690, 8-[4-fluoro-3-({4-[(1-isopropyl-1H-1,2,3-benzotriazol-5-yl)carbonyl]-1,4-diazepan-1-yl}carbonyl)benzyl]-2,3,4,6-tetrahydropyrido[2,3-d]pyridazin-5(1H)-one] here?
Answer: 2.4 nM

Question: For `O=C(c1ccc(F)cc1)C1CCN(C(=O)c2cc(Cc3n[nH]c(=O)c4c3NCCC4)ccc2F)CC1` [Example 691, 8-(4-fluoro-3-{[4-(4-fluorobenzoyl)piperidin-1-yl]carbonyl}benzyl)-2,3,4,6-tetrahydropyrido[2,3-d]pyridazin-5(1H)-one], which Ki is on record?
Answer: 2.1 nM

Question: For `CC1(C)SCNC1C(=O)N1CCN(C(=O)c2cc(Cc3n[nH]c(=O)c4c3NCCC4)ccc2F)CC1` (stereo not drawn) [Example 692, 8-[3-({4-[(5,5-dimethyl-1,3-thiazolidin-4-yl)carbonyl]piperazin-1-yl}carbonyl)-4-fluorobenzyl]-2,3,4,6-tetrahydropyrido[2,3-d]pyridazin-5(1H)-one], which Ki is on record?
Answer: 1.6 nM

Question: With `O=C(c1cnccn1)N1CCCN(C(=O)c2cc(Cc3n[nH]c(=O)c4c3NCCC4)ccc2F)CC1` [Example 693, 8-(4-fluoro-3-{[4-(pyrazin-2-ylcarbonyl)-1,4-diazepan-1-yl]carbonyl}benzyl)-2,3,4,6-tetrahydropyrido[2,3-d]pyridazin-5(1H)-one] as the compound, how does the Ki read?
Answer: 2 nM

Question: For `O=C(c1ccco1)N1CCCN(C(=O)c2cc(Cc3n[nH]c(=O)c4c3NCCC4)ccc2F)CC1` [Example 694, 8-(4-fluoro-3-{[4-(2-furoyl)-1,4-diazepan-1-yl]carbonyl}benzyl)-2,3,4,6-tetrahydropyrido[2,3-d]pyridazin-5(1H)-one], which Ki is on record?
Answer: 1.7 nM

Question: With `O=C(c1cc(Cc2n[nH]c(=O)c3c2NCCC3)ccc1F)N1CCN(c2cncnc2)CC1` [Example 696, 8-{4-fluoro-3-[(4-pyrimidin-5-ylpiperazin-1-yl)carbonyl]benzyl}-2,3,4,6-tetrahydropyrido[2,3-d]pyridazin-5(1H)-one] as the compound, how does the Ki read?
Answer: 2.5 nM

Question: With `CN1CCN(C(=O)c2cc(Cc3n[nH]c(=O)c4c3NCCC4)ccc2F)CC1=O` [Example 697, 8-{4-fluoro-3-[(4-methyl-3-oxopiperazin-1-yl)carbonyl]benzyl}-2,3,4,6-tetrahydropyrido[2,3-d]pyridazin-5(1H)-one] as the compound, how does the Ki read?
Answer: 2.2 nM

Question: For `CN(C(=O)c1cc(Cc2n[nH]c(=O)c3c2NCCC3)ccc1F)C1CCN(C(=O)OC(C)(C)C)CC1` [Example 698, tert-butyl 4-[{2-fluoro-5-[(5-oxo-1,2,3,4,5,6-hexahydropyrido[2,3-d]pyridazin-8-yl)methyl]benzoyl}(methyl)amino]piperidine-1-carboxylate], which Ki is on record?
Answer: 11 nM

Question: `CC(C)(C)OC(=O)N1CCC(NC(=O)c2cc(Cc3n[nH]c(=O)c4c3NCCC4)ccc2F)CC1` [Example 699, tert-butyl 4-({2-fluoro-5-[(5-oxo-1,2,3,4,5,6-hexahydropyrido[2,3-d]pyridazin-8-yl)methyl]benzoyl}amino)piperidine-1-carboxylate] was tested. Which Ki did it give?
Answer: 74 nM

Question: How did the Ki turn out when `CC(C)(C)OC(=O)NC1CCN(C(=O)c2cc(Cc3n[nH]c(=O)c4c3NCCC4)ccc2F)CC1` [Example 700, tert-butyl 1-{2-fluoro-5-[(5-oxo-1,2,3,4,5,6-hexahydropyrido[2,3-d]pyridazin-8-yl)methyl]benzoyl}piperidin-4-ylcarbamate] was run?
Answer: 2.8 nM

Question: Which Ki does the source give for `O=C(c1cc(Cc2n[nH]c(=O)c3c2NCCC3)ccc1F)N1CCCN(C(=O)[C@@H]2CSCN2)CC1` [Example 701, 8-[4-fluoro-3-({4-[(4R)-1,3-thiazolidin-4-ylcarbonyl]-1,4-diazepan-1-yl}carbonyl)benzyl]-2,3,4,6-tetrahydropyrido[2,3-d]pyridazin-5(1H)-one] here?
Answer: 2.3 nM

Question: How did the Ki turn out when `O=C(c1cc[nH]n1)N1CCCN(C(=O)c2cc(Cc3n[nH]c(=O)c4c3NCCC4)ccc2F)CC1` [Example 702, 8-(4-fluoro-3-{[4-(1H-pyrazol-3-ylcarbonyl)-1,4-diazepan-1-yl]carbonyl}benzyl)-2,3,4,6-tetrahydropyrido[2,3-d]pyridazin-5(1H)-one] was run?
Answer: 2.1 nM

Question: With `O=C(c1cscn1)N1CCCN(C(=O)c2cc(Cc3n[nH]c(=O)c4c3NCCC4)ccc2F)CC1` [Example 703, 8-(4-fluoro-3-{[4-(1,3-thiazol-4-ylcarbonyl)-1,4-diazepan-1-yl]carbonyl}benzyl)-2,3,4,6-tetrahydropyrido[2,3-d]pyridazin-5(1H)-one] as the compound, how does the Ki read?
Answer: 2.3 nM

Question: With `O=C(c1cc[nH]n1)N1CCN(C(=O)c2cc(Cc3n[nH]c(=O)c4c3NCCC4)ccc2F)CC1` [Example 704, 8-(4-fluoro-3-{[4-(1H-pyrazol-3-ylcarbonyl)piperazin-1-yl]carbonyl}benzyl)-2,3,4,6-tetrahydropyrido[2,3-d]pyridazin-5(1H)-one] as the compound, how does the Ki read?
Answer: 0.6 nM

Question: How did the Ki turn out when `O=C(c1cscn1)N1CCN(C(=O)c2cc(Cc3n[nH]c(=O)c4c3NCCC4)ccc2F)CC1` [Example 705, 8-(4-fluoro-3-{[4-(1,3-thiazol-4-ylcarbonyl)piperazin-1-yl]carbonyl}benzyl)-2,3,4,6-tetrahydropyrido[2,3-d]pyridazin-5(1H)-one] was run?
Answer: 1.4 nM

Question: `CN(C(=O)c1cc(Cc2n[nH]c(=O)c3c2NCCC3)ccc1F)C1CCNCC1` [Example 706, 2-fluoro-N-methyl-5-[(5-oxo-1,2,3,4,5,6-hexahydropyrido[2,3-d]pyridazin-8-yl)methyl]-N-piperidin-4-ylbenzamide] was tested. Which Ki did it give?
Answer: 5 nM

Question: Which Ki does the source give for `O=C(NC1CCC(O)CC1)c1cc(Cc2n[nH]c(=O)c3c2NCCC3)ccc1F` (stereo not drawn) [Example 709, 2-fluoro-N-(4-hydroxycyclohexyl)-5-[(5-oxo-1,2,3,4,5,6-hexahydropyrido[2,3-d]pyridazin-8-yl)methyl]benzamide] here?
Answer: 53 nM

Question: With `CN(C(=O)c1cc(Cc2n[nH]c(=O)c3c2NCCC3)ccc1F)C1CCN(C(=O)c2cccnc2)CC1` [Example 710, 2-fluoro-N-methyl-5-[(5-oxo-1,2,3,4,5,6-hexahydropyrido[2,3-d]pyridazin-8-yl)methyl]-N-[1-(pyridin-3-ylcarbonyl)piperidin-4-yl]benzamide] as the compound, how does the Ki read?
Answer: 7 nM

Question: For `CCN(CCNC(=O)OC(C)(C)C)C(=O)c1cc(Cc2n[nH]c(=O)c3c2CCCC3)ccc1F` [Example 711, tert-butyl 2-(ethyl{2-fluoro-5-[(4-oxo-3,4,5,6,7,8-hexahydrophthalazin-1-yl)methyl]benzoyl}amino)ethylcarbamate], which Ki is on record?
Answer: 3 nM

Question: For `CN(C(=O)c1cc(Cc2n[nH]c(=O)c3c2NCCC3)ccc1F)C1CCN(C(=O)c2ccncc2)CC1` [Example 712, 2-fluoro-N-(1-isonicotinoylpiperidin-4-yl)-N-methyl-5-[(5-oxo-1,2,3,4,5,6-hexahydropyrido[2,3-d]pyridazin-8-yl)methyl]benzamide], which Ki is on record?
Answer: 4 nM

Question: For `O=C(NC1CCN(C(=O)c2ccc3[nH]cnc3c2)CC1)c1cc(Cc2n[nH]c(=O)c3c2NCCC3)ccc1F` [Example 713, N-[1-(1H-benzimidazol-5-ylcarbonyl)piperidin-4-yl]-2-fluoro-5-[(5-oxo-1,2,3,4,5,6-hexahydropyrido[2,3-d]pyridazin-8-yl)methyl]benzamide], which Ki is on record?
Answer: 1.8 nM

Question: For `O=C(NCCN1CCCC1=O)c1cc(Cc2n[nH]c(=O)c3c2CCCC3)ccc1F` [Example 714, 2-fluoro-5-[(4-oxo-3,4,5,6,7,8-hexahydrophthalazin-1-yl)methyl]-N-[2-(2-oxopyrrolidin-1-yl)ethyl]benzamide], which Ki is on record?
Answer: 0.8 nM

Question: `CN(C(=O)c1cc(Cc2n[nH]c(=O)c3c2NCCC3)ccc1F)C1CCN(C(=O)c2ccco2)CC1` [Example 715, 2-fluoro-N-[1-(2-furoyl)piperidin-4-yl]-N-methyl-5-[(5-oxo-1,2,3,4,5,6-hexahydropyrido[2,3-d]pyridazin-8-yl)methyl]benzamide] was tested. Which Ki did it give?
Answer: 4 nM

Question: Which Ki does the source give for `CN(C(=O)c1cc(Cc2n[nH]c(=O)c3c2NCCC3)ccc1F)C1CCN(C(=O)[C@@H]2CSCN2)CC1` [Example 716, 2-fluoro-N-methyl-5-[(5-oxo-1,2,3,4,5,6-hexahydropyrido[2,3-d]pyridazin-8-yl)methyl]-N-{1-[(4R)-1,3-thiazolidin-4-ylcarbonyl]piperidin-4-yl}benzamide] here?
Answer: 5 nM

Question: With `CN(C(=O)c1cc(Cc2n[nH]c(=O)c3c2NCCC3)ccc1F)C1CCN(C(=O)c2cscn2)CC1` [Example 717, 2-fluoro-N-methyl-5-[(5-oxo-1,2,3,4,5,6-hexahydropyrido[2,3-d]pyridazin-8-yl)methyl]-N-[1-(1,3-thiazol-4-ylcarbonyl)piperidin-4-yl]benzamide] as the compound, how does the Ki read?
Answer: 4 nM

Question: Which Ki does the source give for `CN(C(=O)c1cc(Cc2n[nH]c(=O)c3c2NCCC3)ccc1F)C1CCN(C(=O)c2cn[nH]c2)CC1` [Example 718, 2-fluoro-N-methyl-5-[(5-oxo-1,2,3,4,5,6-hexahydropyrido[2,3-d]pyridazin-8-yl)methyl]-N-[1-(1H-pyrazol-4-ylcarbonyl)piperidin-4-yl]benzamide] here?
Answer: 2.6 nM
